Like-named read-outs stand apart in the source and are kept apart here.
Columns and labels:
[1] = target: GDP-bound KRAS wild-type protein (Homo sapiens, UniProt P01116); experiment: Binding to KRAS by surface plasmon resonance (SPR), dissociation constant KD
Method in brief: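 GDP-loaded biotinylated Avi-tag RAS proteins (E. coli-expressed) captured on a Biotin CAPture chip at ~100–300 RU; single-cycle kinetics at 30°C, 100 µL/min, 75 s injections of rising compound concentrations. HBS pH 7.4 running buffer with 1 mM DTT, 10 mM MgCl2, 10 µM GDP, 4% DMSO. KD from 1:1 binding fit.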

[2] = target: GDP-bound NRAS wild-type protein (Homo sapiens, UniProt P01111); experiment: Binding to NRAS by surface plasmon resonance (SPR), KD and KD ratio to KRAS
Chain of GDP-bound NRAS wild-type protein (P01111 whole entry): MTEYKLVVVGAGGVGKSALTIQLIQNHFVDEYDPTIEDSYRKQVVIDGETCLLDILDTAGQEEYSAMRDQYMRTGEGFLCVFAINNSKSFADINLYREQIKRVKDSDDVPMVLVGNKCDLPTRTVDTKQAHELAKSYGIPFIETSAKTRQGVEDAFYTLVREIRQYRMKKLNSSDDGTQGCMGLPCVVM
Method in brief: (§1)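 Affinity is measured by surface plasmon resonance at 30°C against captured, GDP-loaded RAS carrying a biotinylated Avi tag. Compounds are titrated by single-cycle kinetics, and KD comes from a 1:1 fit.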

[3] = target: HRAS wild-type protein (Homo sapiens, UniProt P01112); experiment: Binding to HRAS by surface plasmon resonance (SPR), KD and KD ratio to KRAS
Chain of HRAS wild-type protein (P01112 whole entry): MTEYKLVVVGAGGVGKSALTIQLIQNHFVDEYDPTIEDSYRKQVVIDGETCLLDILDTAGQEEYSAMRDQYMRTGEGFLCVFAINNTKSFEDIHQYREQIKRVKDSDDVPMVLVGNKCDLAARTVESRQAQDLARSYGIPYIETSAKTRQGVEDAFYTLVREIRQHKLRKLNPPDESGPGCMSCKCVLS
Method in brief: as §1

[4] = tested on: human lung cancer strain NCI-H441; experiment: NCI-H441 cell proliferation inhibitory activity (CellTiter-Glo, 4 days); format: cell-based; conditions: read-out: NCl-H441 IC50
Method in brief: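 Readout: […] after the ATP-based reagent. Compound: serial dilutions in dimethyl sulfoxide.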

[5] = ratio of KD for GDP-bound NRAS wild-type protein to KD for KRAS
[6] = ratio of KD for HRAS wild-type protein to KD for KRAS
[7] = Single Cycle Kinetics, 1:1 binding model
[8] = ratio of KD with respect to GDP-bound NRAS wild-type protein to KD with respect to KRAS
[9] = ratio of KD with respect to HRAS wild-type protein to KD with respect to KRAS
[10] = 50% proliferation inhibitory concentration, four days

Chain of GDP-bound KRAS wild-type protein (P01116 1-188 isoform P01116-2): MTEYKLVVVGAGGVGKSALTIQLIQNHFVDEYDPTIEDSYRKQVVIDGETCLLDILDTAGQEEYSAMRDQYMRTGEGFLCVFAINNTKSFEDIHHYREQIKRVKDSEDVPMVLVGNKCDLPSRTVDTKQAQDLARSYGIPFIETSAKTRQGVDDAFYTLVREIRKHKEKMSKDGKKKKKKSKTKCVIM

Kd ([1]; Single Cycle Kinetics) | IC50 ([4]; NCI-H441 cells, 4 days) | Kd ([1]; 1:1 binding model) | Kd [1, 7] | IC50 [4, 10] | SMILES | NRAS /KRAS [2, 5] | HRAS /KRAS [3, 6] | NRAS /KRAS [2, 8] | HRAS /KRAS [3, 9]
2.4 nM | 25.4 nM |  |  |  | CCC[C@H]1C(=O)N[C@@H](C2CCCC2)C(=O)N(C)CC(=O)N(C)[C@H]2C/C=C\CCN(C2=O)[C@@H](Cc2ccc(C(F)(F)F)cc2)C(=O)N(C)CC(=O)N[C@@H](CCc2cc(F)c(C(F)(F)F)c(F)c2)C(=O)N2CC3(CC3)C[C@H]2C(=O)N(C)C2(CCC2)C(=O)N(C)[C@@H]([C@@H](C)CC)C(=O)N(C)[C@H](C(=O)N(C)C)CC(=O)N1C [PP3307] | AA (a compound having 20 or more is denoted as AA) | A (a compound having 10 or more and less than 20 is denoted as A) |  | 
0.059 nM | 4.6 nM |  |  |  | CCC[C@H]1C(=O)N[C@@H]([C@@H](C)CC)C(=O)N(C)CC(=O)N(C)[C@H]2C/C=C\CCN(C2=O)[C@@H](Cc2ccc(C(F)(F)F)cc2)C(=O)N(C)CC(=O)N[C@@H](CCc2cc(F)c(C(F)(F)F)c(F)c2)C(=O)N2CC3(CC3)C[C@H]2C(=O)NC2(CCC2)C(=O)N(C)[C@@H](C2CCCC2)C(=O)N(C)[C@H](C(=O)N(C)C)CC(=O)N1C [PP3436] | A (a compound having 10 or more and less than 20 is denoted as A) | A (a compound having 10 or more and less than 20 is denoted as A) |  | 
 | 88.7 nM | 2 nM |  |  | CCC(CC)[C@H]1C(=O)N(C)[C@H](C(=O)N(C)C)CC(=O)N(C)[C@@H](COC)C(=O)N[C@@H]([C@@H](C)CC)C(=O)N(C2CC2)CC(=O)N(C)[C@H]2C/C=C\CCN(C2=O)[C@@H](CC2CCC(F)(F)CC2)C(=O)N(C)CC(=O)N[C@@H](CCc2cc(F)c(C(F)(F)F)c(F)c2)C(=O)N2C[C@H](OC3CCC3)C[C@H]2C(=O)NC2(CC(C)(C)C2)C(=O)N1C [PP2615] | A (a compound having 10 or more and less than 20 is denoted as A) | A (a compound having 10 or more and less than 20 is denoted as A) |  | 
0.041 nM | 5.4 nM |  |  |  | CCC[C@H]1C(=O)N[C@@H]([C@@H](C)CC)C(=O)N(C)CC(=O)N(C)[C@H]2C/C=C\CCN(C2=O)[C@@H](Cc2ccc(C(F)(F)F)cc2)C(=O)N(C)CC(=O)N[C@@H](CCc2ccc(C(F)(F)F)c(Cl)c2)C(=O)N2CC3(CC3)C[C@H]2C(=O)NC2(CCC2)C(=O)N(C)[C@@H](CC(C)(C)C)C(=O)N(C)[C@H](C(=O)N(C)C)CC(=O)N1C [PP3418] | A (a compound having 10 or more and less than 20 is denoted as A) | B (a compound having 3 or more and less than 10 is denoted as B) |  | 
0.36 nM | 17.2 nM |  |  |  | CCC[C@H]1C(=O)N[C@@H]([C@@H](C)CC)C(=O)N(C)CC(=O)N(C)[C@H]2C/C=C\CCN(C2=O)[C@@H](Cc2ccc(C)cc2)C(=O)N(C)CC(=O)N[C@@H](CCc2ccc(C(F)(F)F)c(Cl)c2)C(=O)N2CC3(CC3)C[C@H]2C(=O)NC2(CCC2)C(=O)N(C)[C@@H]([C@@H](C)CC)C(=O)N(C)[C@H](C(=O)N(C)C)CC(=O)N1C [PP3426] | A (a compound having 10 or more and less than 20 is denoted as A) | A (a compound having 10 or more and less than 20 is denoted as A) |  | 
 |  |  | 0.036 nM | 13 nM | CCCO[C@@H]1C[C@H]2C(=O)NC3(CCC3)C(=O)N(C)[C@@H](C3CCCC3)C(=O)N(C)[C@H](C(=O)N3CCOCC3)CC(=O)N(C)[C@@H](CC(C)C)C(=O)N[C@@H]([C@@H](C)CC)C(=O)N(C)CC(=O)N(C)[C@H]3CCCCN(C3=O)[C@@H](Cc3ccc(C(F)(F)F)cc3)C(=O)N(C)CC(=O)N[C@@H](CCc3cc(F)c(C(F)(F)F)c(F)c3)C(=O)N2C1 [PP1159] |  |  | C (A compound having a KD ratio of 0.1 or more and less than 3 is denoted as C) | B (a compound having 3 or more and less than 10 is denoted as B)
 |  |  | 0.024 nM | 4.6 nM | CCO[C@@H]1C[C@H]2C(=O)NC3(CCCC3)C(=O)N(C)[C@@H](C3CCCC3)C(=O)N(C)[C@H](C(=O)N(C)C)CC(=O)N(C)[C@@H](CC)C(=O)N[C@@H]([C@@H](C)CC)C(=O)N(C)CC(=O)N(C)[C@H]3C[C@@H](C)[C@@H](C)CN(C3=O)[C@@H](Cc3ccc(C(F)(F)F)cc3)C(=O)N(C)CC(=O)N[C@@H](CCc3cc(F)c(C(F)(F)F)c(F)c3)C(=O)N2C1 [PP1352] |  |  | A (a compound having 10 or more and less than 20 is denoted as A) | B (a compound having 3 or more and less than 10 is denoted as B)
0.24 nM | 15.6 nM |  |  |  | CCC[C@H]1C(=O)N[C@@H]([C@@H](C)CC)C(=O)N(C)CC(=O)N(C)[C@H]2C/C=C\CCN(C2=O)[C@@H](Cc2ccc(C(F)(F)F)cc2)C(=O)N(C)CC(=O)N[C@@H](CCc2ccc(C(F)(F)F)c(OC)c2)C(=O)N2CC3(CC3)C[C@H]2C(=O)NC2(CCC2)C(=O)N(C)[C@@H]([C@@H](C)CC)C(=O)N(C)[C@H](C(=O)N(C)C)CC(=O)N1C [PP3410] | AA (a compound having 20 or more is denoted as AA) | A (a compound having 10 or more and less than 20 is denoted as A) |  | 
 |  |  | 0.23 nM | 32.9 nM | CCO[C@@H]1C[C@H]2C(=O)NC3(CCC3)C(=O)N(C)[C@@H](C3CCCC3)C(=O)N(C)[C@H](C(=O)N(C)C)CC(=O)N(C)[C@@H](CC(C)(C)C)C(=O)N[C@@H]([C@@H](C)CC)C(=O)N(C)CC(=O)N(C)[C@H]3C/C=C\CCN(C3=O)[C@@H](CC3CCC(F)(F)CC3)C(=O)N(C)CC(=O)N[C@@H](CCc3cc(F)c(C(F)(F)F)c(F)c3)C(=O)N2C1 [PP1460] |  |  | A (a compound having 10 or more and less than 20 is denoted as A) | A (a compound having 10 or more and less than 20 is denoted as A)
 |  |  | 0.21 nM | 29.9 nM | CCO[C@@H]1C[C@H]2C(=O)NC3(CCC3)C(=O)N(C)[C@@H](C(CC)CC)C(=O)N(C)[C@H](C(=O)N(C)C)CC(=O)N(C)[C@@H](CC)C(=O)N[C@@H]([C@@H](C)CC)C(=O)N(C)CC(=O)N(C)[C@H]3C/C=C\CCN(C3=O)[C@@H](Cc3ccc(C(F)(F)F)cc3)C(=O)N(C)CC(=O)N[C@@H](CCc3ccc(C(F)(F)F)c(OC)c3)C(=O)N2C1 [PP1207] |  |  | AA (a compound having 20 or more is denoted as AA) | A (a compound having 10 or more and less than 20 is denoted as A)
 |  |  | 0.36 nM | 34.1 nM | CC[C@H](C)[C@@H]1NC(=O)[C@H](CC)N(C)C(=O)C[C@@H](C(=O)N(C)C)N(C)C(=O)[C@H](C2CCCC2)N(C)C(=O)C2(CCC2)NC(=O)[C@@H]2C[C@@H](C(F)(F)F)CN2C(=O)[C@H](CCc2cc(F)c(C(F)(F)F)c(F)c2)NC(=O)CN(C)C(=O)[C@H](CC2CCCCC2)N2CC/C=C\C[C@@H](C2=O)N(C)C(=O)CN(C)C1=O [PP1465] |  |  | A (a compound having 10 or more and less than 20 is denoted as A) | A (a compound having 10 or more and less than 20 is denoted as A)
0.74 nM | 17.5 nM |  |  |  | CCCC[C@H]1C(=O)N[C@@H]([C@@H](C)CC)C(=O)N2CCC[C@H]2C(=O)N(C)[C@H]2C/C=C\CCN(C2=O)[C@@H](Cc2ccc(C)cc2)C(=O)N(C)CC(=O)N[C@@H](CCc2ccc(C(F)(F)F)c(OC)c2)C(=O)N2C[C@H](OCC)C[C@H]2C(=O)OC2(CCC2)C(=O)N(C)[C@@H](C2CCCC2)C(=O)N(C)[C@H](C(=O)N(C)C)CC(=O)N1C [PP3383] | A (a compound having 10 or more and less than 20 is denoted as A) | A (a compound having 10 or more and less than 20 is denoted as A) |  | 
 | 76.7 nM | 2.4 nM |  |  | CCO[C@@H]1C[C@H]2C(=O)NC3(CC(C)(C)C3)C(=O)N(C)[C@@H](C(CC)CC)C(=O)N(C)[C@H](C(=O)N(C)C)CC(=O)N(C)[C@@H](C(C)C)C(=O)N[C@@H]([C@@H](C)CC)C(=O)N(C)CC(=O)N(C)[C@H]3C/C=C\CCN(C3=O)[C@@H](CC3CCC(F)(F)CC3)C(=O)N(C)CC(=O)N[C@@H](CCc3ccc(C(F)(F)F)c(Cl)c3)C(=O)N2C1 [PP2492] | AA (a compound having 20 or more is denoted as AA) | A (a compound having 10 or more and less than 20 is denoted as A) |  | 
 |  |  | 0.056 nM | 10.2 nM | CC[C@H](C)[C@@H]1NC(=O)[C@H](CC)N(C)C(=O)C[C@@H](C(=O)N(C)C)N(C)C(=O)[C@H](C2CCCC2)N(C)C(=O)C2(CCC2)NC(=O)[C@@H]2CC(F)(F)CN2C(=O)[C@H](CCc2cc(F)c(C(F)(F)F)c(F)c2)NC(=O)CN(C)C(=O)[C@H](Cc2ccc(C(F)(F)F)cc2)N2CC/C=C\C[C@@H](C2=O)N(C)C(=O)CN(C)C1=O [PP1129] |  |  | A (a compound having 10 or more and less than 20 is denoted as A) | B (a compound having 3 or more and less than 10 is denoted as B)
0.85 nM | 8 nM |  |  |  | CCC[C@H]1C(=O)N[C@@H](C2CCCC2)C(=O)N(C)CC(=O)N(C)[C@H]2C/C=C\CCN(C2=O)[C@@H](Cc2ccc(C(F)(F)F)cc2)C(=O)N(C)CC(=O)N[C@@H](CCc2ccc(C(F)(F)F)c(Cl)c2)C(=O)N2CC3(CC3)C[C@H]2C(=O)N(C)C2(CCC2)C(=O)N(C)[C@@H](C(CC)CC)C(=O)N(C)[C@H](C(=O)N(C)C)CC(=O)N1C [PP3321] | AA (a compound having 20 or more is denoted as AA) | A (a compound having 10 or more and less than 20 is denoted as A) |  | 
